# In patent US6737383B1, “Herbicidal oxadiazolidines” (priority 1999, dated 2004):
# Tests used:
# wheat = assay: Test B pre/postemergence wheat; format: in vivo, Triticum aestivum
# Summary of the method: (§1)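 Test chemicals in a non-phytotoxic solvent mixture with surfactant were sprayed preemergence onto planted seeds and postemergence onto plants 2 to 18 cm tall (1- to 4-leaf stage). After twelve to sixteen days in a greenhouse, injury was visually rated against untreated controls from 0 (no effect) to 10 (complete control).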
# soybean = assay: Test B pre/postemergence soybean; format: in vivo, Glycine max
# Summary of the method: as §1
# morningglory = assay: Test B pre/postemergence morningglory; format: in vivo, Ipomoea hederacea
# Summary of the method: as §1
# purple nutsedge = assay: Test B pre/postemergence purple nutsedge; format: in vivo, Cyperus rotundus
# Summary of the method: as §1
# sugar beet = assay: Test B pre/postemergence sugar beet; format: in vivo, Beta vulgaris
# Summary of the method: as §1
# crabgrass = assay: Test B pre/postemergence crabgrass; format: in vivo, Digitaria sanguinalis
# Summary of the method: as §1
# duck salad = assay: Test B flood test duck salad; format: in vivo, Heteranthera limosa
# Summary of the method: (§2)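 Plants were grown to the 2-leaf stage before treatment with test chemical, then held in a greenhouse for twelve to sixteen days. Injury was visually rated against untreated controls on a 0–10 scale, where 0 is no effect and 10 is complete control.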
# smallflower flatsedge = assay: Test B flood test smallflower flatsedge; format: in vivo, Cyperus difformis
# Summary of the method: as §2
# giant foxtail = assay: Test B pre/postemergence giant foxtail; format: in vivo, Setaria faberii
# Summary of the method: as §1
# blackgrass = assay: Test B pre/postemergence blackgrass; format: in vivo, Alopecurus myosuroides
# Summary of the method: as §1
# velvetleaf = assay: Test B pre/postemergence velvetleaf; format: in vivo, Abutilon theophrasti
# Summary of the method: as §1
# rape = assay: Test B pre/postemergence rape; format: in vivo, Brassica napus
# Summary of the method: as §1
# pigweed = assay: Test B pre/postemergence pigweed; format: in vivo, Amaranthus retroflexus
# Summary of the method: as §1
# bamyardgrass = assay: Test B flood test barnyardgrass; format: in vivo, Echinochloa crus-galli
# Summary of the method: as §2
# corn = assay: Test B pre/postemergence corn; format: in vivo, Zea mays
# Summary of the method: as §1
# cocklebur = assay: Test B pre/postemergence cocklebur; format: in vivo, Xanthium strumarium
# Summary of the method: as §1
# surinam grass = assay: Test B pre/postemergence surinam grass; format: in vivo, Brachiaria decumbens
# Summary of the method: as §1
# wild oat = assay: Test B pre/postemergence wild oat; format: in vivo, Avena fatua
# Summary of the method: as §1
# rice = assay: Test B flood test rice; format: in vivo, Oryza sativa
# Summary of the method: as §2
# [1] = Postemergence, Rate 31 g/ha, visual rating, scale 0 to 10 (0 no effect, 10 complete control)
# [2] = Postemergence, Rate 62 g/ha, scale 0 to 10, 0 is no effect, 10 is complete control
# [3] = Postemergence, Rate 125 g/ha, scale of 0 to 10 where 0 is no effect and 10 is complete control
# [4] = Postemergence, Rate 250 g/ha, scale of 0 to 10, 0 is no effect, 10 is complete control
# [5] = Preemergence, Rate 62 g/ha, scale of 0 to 10 where 0 is no effect and 10 is complete control
# [6] = Preemergence, Rate 125 g/ha, scale of 0 to 10 where 0 is no effect and 10 is complete control
# [7] = Preemergence, Rate 250 g/ha, scale 0 to 10 (0 no effect, 10 complete control)
# [8] = Preemergence, Rate 31 g/ha, visual rating, scale 0 to 10 (0 no effect, 10 complete control)
# [9] = Rate 31 g/ha, Pre-emergence section (flood test species), scale 0 to 10
# [10] = Rate 62 g/ha, flood test species, Pre-emergence, visual evaluation after twelve to sixteen days
# [11] = Rate 125 g/ha, under heading Pre-emergence, flood test species, visual evaluation after twelve to sixteen days
# [12] = Rate 250 g/ha, Pre-emergence (flood test species), scale 0 to 10, 0 is no effect, 10 is complete control
smiles,measurement,setting,value
CCOP(=O)(OCC)C(C)n1c(=O)on(C(=O)N(c2ccc(Cl)cc2)C(C)C)c1=O (centres unmarked) [Compound 644],Wheat plant response rating,wheat; [1],0
same,"Plant response rating, Wheat",wheat; [2],0
same,Wheat plant response rating,wheat; [3],0
same,Wheat plant response rating,wheat; [4],0
same,Wheat plant response rating,wheat; [5],0
same,Wheat plant response rating,wheat; [6],0
same,"Plant response rating, Wheat",wheat; [7],0
same,Soybean plant response rating,soybean; [1],0
same,"Plant response rating, Soybean",soybean; [2],0
same,Soybean plant response rating,soybean; [3],0
same,Soybean plant response rating,soybean; [5],0
same,Soybean plant response rating,soybean; [6],0
same,"Plant response rating, Soybean",soybean; [7],0
same,Morningglory plant response rating,morningglory; [1],0
same,"Plant response rating, Morningglory",morningglory; [2],0
same,Morningglory plant response rating,morningglory; [3],0
same,Morningglory plant response rating,morningglory; [4],0
same,Morningglory plant response rating,morningglory; [5],0
same,Morningglory plant response rating,morningglory; [6],0
same,"Plant response rating, Morningglory",morningglory; [7],3
same,Nutsedge plant response rating,purple nutsedge; [1],0
same,Nutsedge plant response rating,purple nutsedge; [3],0
same,Nutsedge plant response rating,purple nutsedge; [5],0
same,Nutsedge plant response rating,purple nutsedge; [6],0
same,Sugarbeets plant response rating,sugar beet; [1],0
same,"Plant response rating, Sugarbeets",sugar beet; [2],0
same,Sugarbeets plant response rating,sugar beet; [3],0
same,Sugarbeets plant response rating,sugar beet; [4],0
same,Sugarbeets plant response rating,sugar beet; [5],0
same,Sugarbeets plant response rating,sugar beet; [6],0
same,"Plant response rating, Sugarbeets",sugar beet; [7],0
same,Crabgrass plant response rating,crabgrass; [1],0
same,"Plant response rating, Crabgrass",crabgrass; [2],0
same,Crabgrass plant response rating,crabgrass; [3],0
same,Crabgrass plant response rating,crabgrass; [4],0
same,Crabgrass plant response rating,crabgrass; [8],2
same,Crabgrass plant response rating,crabgrass; [5],2
same,"Plant response rating, Crabgrass",crabgrass; [7],3
same,Ducksalad plant response rating,duck salad; [9],0
same,"Plant response rating, Ducksalad (0 to 10 scale, 0 is no effect, 10 is complete control)",duck salad; [10],0
same,"Ducksalad plant response rating (0 to 10 scale, 0 is no effect, 10 is complete control)",duck salad; [11],0
same,Ducksalad plant response rating,duck salad; [12],0
same,S. Flatsedge plant response rating,smallflower flatsedge; [9],0
same,"Plant response rating, S. Flatsedge (0 to 10 scale, 0 is no effect, 10 is complete control)",smallflower flatsedge; [10],0
same,"S. Flatsedge plant response rating (0 to 10 scale, 0 is no effect, 10 is complete control)",smallflower flatsedge; [11],0
same,S. Flatsedge plant response rating,smallflower flatsedge; [12],0
same,Giant foxtail plant response rating,giant foxtail; [1],0
same,"Plant response rating, Giant foxtail",giant foxtail; [2],0
same,Giant foxtail plant response rating,giant foxtail; [3],0
same,Giant foxtail plant response rating,giant foxtail; [4],0
same,Giant foxtail plant response rating,giant foxtail; [8],0
same,Giant foxtail plant response rating,giant foxtail; [5],0
same,Giant foxtail plant response rating,giant foxtail; [6],2
same,"Plant response rating, Giant foxtail",giant foxtail; [7],6
same,Blackgrass plant response rating,blackgrass; [1],0
same,"Plant response rating, Blackgrass",blackgrass; [2],0
same,Blackgrass plant response rating,blackgrass; [3],0
same,Blackgrass plant response rating,blackgrass; [4],0
same,Blackgrass plant response rating,blackgrass; [8],0
same,Blackgrass plant response rating,blackgrass; [5],0
same,Blackgrass plant response rating,blackgrass; [6],0
same,"Plant response rating, Blackgrass",blackgrass; [7],0
same,Velvetleaf plant response rating,velvetleaf; [1],0
same,"Plant response rating, Velvetleaf",velvetleaf; [2],0
same,Velvetleaf plant response rating,velvetleaf; [3],0
same,Velvetleaf plant response rating,velvetleaf; [4],0
same,Velvetleaf plant response rating,velvetleaf; [5],0
same,Velvetleaf plant response rating,velvetleaf; [6],0
same,"Plant response rating, Velvetleaf",velvetleaf; [7],0
same,Rape plant response rating,rape; [1],0
same,"Plant response rating, Rape",rape; [2],0
same,Rape plant response rating,rape; [3],0
same,Rape plant response rating,rape; [4],0
same,Rape plant response rating,rape; [5],0
same,Rape plant response rating,rape; [6],0
same,"Plant response rating, Rape",rape; [7],2
same,Redroot pigweed plant response rating,pigweed; [1],2
same,"Plant response rating, Redroot pigweed",pigweed; [2],2
same,Redroot pigweed plant response rating,pigweed; [3],3
same,Redroot pigweed plant response rating,pigweed; [4],3
same,Redroot pigweed plant response rating,pigweed; [5],0
same,Redroot pigweed plant response rating,pigweed; [6],0
same,"Plant response rating, Redroot pigweed",pigweed; [7],0
same,Barnyardgrass plant response rating,bamyardgrass; [9],0
same,"Plant response rating, Barnyardgrass (0 to 10 scale, 0 is no effect, 10 is complete control)",bamyardgrass; [10],0
same,"Barnyardgrass plant response rating (0 to 10 scale, 0 is no effect, 10 is complete control)",bamyardgrass; [11],0
same,Barnyardgrass plant response rating,bamyardgrass; [12],0
same,Corn plant response rating,corn; [1],0
same,"Plant response rating, Corn",corn; [2],0
same,Corn plant response rating,corn; [3],0
same,Corn plant response rating,corn; [4],0
same,Corn plant response rating,corn; [8],0
same,Corn plant response rating,corn; [5],0
same,Corn plant response rating,corn; [6],0
same,"Plant response rating, Corn",corn; [7],0
same,Cocklebur plant response rating,cocklebur; [1],0
same,"Plant response rating, Cocklebur",cocklebur; [2],0
same,Cocklebur plant response rating,cocklebur; [3],0
same,Cocklebur plant response rating,cocklebur; [4],0
same,Cocklebur plant response rating,cocklebur; [8],0
same,Cocklebur plant response rating,cocklebur; [5],0
same,Cocklebur plant response rating,cocklebur; [6],0
same,"Plant response rating, Cocklebur",cocklebur; [7],0
same,B. signalgrass plant response rating,surinam grass; [1],0
same,"Plant response rating, B. signalgrass",surinam grass; [2],0
same,"Plant response rating, B. signalgrass",surinam grass; [3],0
same,B. signalgrass plant response rating,surinam grass; [4],0
same,B. signalgrass plant response rating,surinam grass; [8],0
same,B. signalgrass plant response rating,surinam grass; [5],0
same,B. signalgrass plant response rating,surinam grass; [6],0
same,"Plant response rating, B. signalgrass",surinam grass; [7],2
same,Wild oats plant response rating,wild oat; [1],0
same,"Plant response rating, Wild oats",wild oat; [2],0
same,Wild oats plant response rating,wild oat; [3],0
same,Wild oats plant response rating,wild oat; [4],0
same,Wild oats plant response rating,wild oat; [5],0
same,Wild oats plant response rating,wild oat; [6],0
same,"Plant response rating, Wild oats",wild oat; [7],0
same,Rice plant response rating,rice; [9],0
same,"Plant response rating, Rice (0 to 10 scale, 0 is no effect, 10 is complete control)",rice; [10],0
same,"Rice plant response rating (0 to 10 scale, 0 is no effect, 10 is complete control)",rice; [11],0
same,Rice plant response rating,rice; [12],0
